# Read-outs that look alike come from different tables or passages of the source. Marks after values point to notes of the source that are not given here.
# Legend:
# [1] = system: HT29 cells (human colon carcinoma); experiment: Antiproliferative activity, 72 h treatment, SRB assay, HT29; type: cell-based; details: 72 h. treatment, read-out: Antiproliferative activity (IC50 ± S.D., μM) HT-29
# [2] = system: HT29/Mit cells (mitoxantrone-resistant human colon carcinoma, BCRP overexpression); experiment: Antiproliferative activity, 72 h treatment, SRB assay, HT29/Mit
# Experimental: HT29 and HT29/Mit (line obtained by prolonged exposure to mitoxantrone, and characterised by overerexpression of BCRP, which confers cross resistance to topotecan, irinotecan and to its metabolite SN38): maintained in McCoy 5A medium+10% FCS.
# (§1) The cells (HT29 and HT29/Mit:. 40,000 cells/ml, LoVo, LoVo/Dx and HCT116: 50,000 cells/ml) are seeded in 100 μl of the respective culture media in 96-well plates. 24 hours after seeding, an aliquot (10 μl) of drug at the various concentrations is added. In the samples in which the effect of the combination of two compounds is to be tested the inhibitor is added immediately before the cytotoxic. For each dose or combination of doses/drugs the effect of the treatment is determined in 4-8 replicates.
# (§2) After 72 hours of treatment the antiproliferative effect is evaluated using the sulforhodamine B (SRB) assay: the cells are fixed by adding 25 μl of 50% TCA to each well and left for 1 hour at 4° C. After washing them with water and allowing them to dry, 100 μl of 0.4% SRB in 1% acetic acid are added and left for 30 minutes at room temperature. After 4 washes in 1% acetic acid, they are left to dry, then the dye fixed by the proteins is dissolved under basic conditions with 100 μl 10 mM cold Tris and the solution is read using a spectrophotometer at 550 nm.
# (§3) Percentage cell growth is calculated as the optical density of treated samples compared to the optical density of controls (untreated cells).
# (§4) The Combination Index (C.I.) was determined according to Kern's method, 1988 (who continued from Drewinko B, 1976) (Kern D. H., Cancer Res. 48, 117-121, 1988; Drewinko B., Cancer Biochem. Biophys. 1, 187-195, 1976) by means of the following formula: […], where SFa and SFb are the fractions of cells surviving to treatment with compound a and b, respectively; SFab is the fraction surviving to the combination of compounds a and b.
# [3] = system: HepG2 cells (human hepatic carcinoma); experiment: Antiproliferative activity, 48 h treatment, ATPlite luminescence assay, HepG2; type: cell-based
# Experimental: HepG2: maintained in EMEM medium+10% FCS.
# (§5) 24 hours after seeding, an aliquot (10 μl) of the drug at the various concentrations is added (for each concentration there are 3 replicates). After 48 hours of treatment the antiproliferative effect is evaluated with a luminescence assay (Perkin Elmer Life Sciences ATPlite):
# (§6) 50 μl of a lysis solution are added to each well followed by an equal volume of a solution containing luciferase and D-luciferin. The ATP present in all the metabolically active cells brings about the transformation reaction of D-luciferin, catalysed by luciferase, to produce a luminescent signal as described in the following scheme: ATP+D-luciferin+O2→Oxyluciferin+AMP+PPi+CO2+Light
# (§7) The luminescence produced (expressed in counts per second, CPS) is measured by means of a microplate scintillation analyzer (Perkin Elmer Life Sciences Top Count).
# (§8) Percentage inhibition of luminescence in the treated cells compared to the control is calculated; concentration-response curves are then analysed using Grafit v.5.0.
# [4] = molecular target: Vacuolar ATPase (bafilomycin sensitive ATPase activity) (Homo sapiens, UniProt P27449+Q13488); experiment: Vacuolar ATPase inhibition in human osteoclastoma (hOc) microsomal fraction; type: biochemical; details: 30 min, 37° C., read-out: v-ATPase Activity (IC50, μM) hOc
# Experimental: 1.1 Determination of Vacuolar ATPase Inhibition in Human Osteoclastoma (hOc)
# Osteoclast-like giant cells isolated from human osteoclastoma are homogenized using a glass-teflon homogeniser (1000 rpm) and the material is centrifuged for 20 minutes at 6000 g. The resultant pellet is resuspended and centrifuged at 100000 g for 60 minutes to sediment the microsomal fraction. The resultant pellet is resuspended in medium at pH 7.4 and stored under liquid nitrogen.
# Inhibition of bafilomycin sensitive ATPase activity is assayed by measuring the release of inorganic phosphate during 30 minutes of incubation, at 37° C., of the human osteoclastoma microsomal fraction in 96-well plates. The reaction medium contains 1 mM ATP, 10 mM Hepes-Tris buffer pH 8, 50 mM KCl, 5 μM valinomycin, 5 μM nigericin, 1 mM CDTA-Tris, 100 μM ammonium molybdate, 0.2 M sucrose and the microsomal fraction ([…] protein/ml). The reaction is initiated by adding MgSO4 and terminated, after 30 minutes, by adding 4 volumes of the reagent malachite green, prepared according to Chan K., Anal. Biochem. 157, 375-380, 1986.
# [5] = system: LoVo cells (human colon carcinoma); experiment: Antiproliferative activity, 72 h treatment, SRB assay, LoVo; type: cell-based; details: 72 h. treatment; read-out: Antiproliferative activity (IC50 ± S.D., μM) LoVo
# Text: (§9) LoVo and LoVo/Dx (line obtained by prolonged exposure to doxorubicin and characterised by overerexpression of P-glycoprotein, which confers resistance to doxorubicin): maintained in HAM-F12 medium+10% FCS.
# [6] = system: LoVo/Dx cells (doxorubicin-resistant human colon carcinoma, P-glycoprotein overexpression); experiment: Antiproliferative activity, 72 h treatment, SRB assay, LoVo/Dx; type: cell-based; details: 72 h. treatment; read-out: Antiproliferative activity (IC50 ± S.D., μM) LoVo/Dx
# Text: as §9
# [7] = system: HCT116 cells (human colon carcinoma); experiment: Antiproliferative activity, 72 h treatment, SRB assay, HCT116; type: cell-based; details: 72 h. treatment; read-out: Antiproliferative activity (IC50 ± S.D., μM) HCT116
# Experimental: HCT116 maintained in RPMI 1640 medium+10% FCS.
# as §1, §2, §3, §4
# [8] = system: SH-SY5Y cells (human neuroblastoma); experiment: Antiproliferative activity, 48 h treatment, ATPlite luminescence assay, SH-SY5Y; type: cell-based; details: 48 h. treatment; read-out: Antiproliferative activity (IC50 ± S.D., μM) SHSY-5Y
# Experimental: (§10) SH-SY5Y and SK-N-BE(2): maintained in HAM-F12 medium+10% FCS.
# as §5, §6, §7, §8
# [9] = system: SK-N-BE(2) cells (human neuroblastoma); experiment: Antiproliferative activity, 48 h treatment, ATPlite luminescence assay, SK-N-BE(2); type: cell-based; details: 48 h. treatment; read-out: Antiproliferative activity (IC50 ± S.D., μM) SK-N-BE(2)
# Experimental: as §10, §5, §6, §7, §8
# [10] = system: A2780 cells (human ovarian carcinoma); experiment: Antiproliferative activity, 48 h treatment, ATPlite luminescence assay, A2780; type: cell-based; details: 48 h. treatment; read-out: Antiproliferative activity (IC50 ± S.D., μM) A2780
# Experimental: as §5, §6, §7, §8
# [11] = system: HT29/Mit human colon carcinoma xenografts; experiment: HT29/Mit human colon carcinoma xenografts, antitumor activity; type: in vivo, athymic Swiss nude mice; details: HT29/Mit xenograft, p.o.; topotecan 15 mg/Kg every 4 days for 3 administrations; compound of example 2 30 mg/kg; alone or combined
# Experimental: Female athymic Swiss nude mice (8-10 weeks old) (Charles River, Calco, Italy) were used for the experiments. The animals were maintained at constant temperature and humidity, and were allowed to eat and drink freely. The experimental protocol was approved by the Ethics Committee for Animal Experimentation of the Istituto Nazionale Tumori of Milan.
# The antitumour effectiveness of the compounds of the invention under discussion was tested on athymic mouse models implanted with HT29 and/or HT29/Mit tumour cells: this latter variety is highly resistant to topotecan treatment. The tumour cells were implanted in vivo via subcutaneous injection of 10^7 cells taken from in vitro cultures. Randomized groups of five mice with bilateral subcutaneous tumours were used for the experiment.
# Topotecan or other known antitumour agents (dissolved in distilled water or an appropriate solvent) and the compounds of the invention (dissolved in Cremophor EL:ethanol:saline solution in the proportions 5:5:90, or in an appropriate solvent) were administered orally from the third day, alone or in combination, in agreement with a treatment scheme selected in an appropriate manner depending on the type of compound to be studied.
# The weight (or volume) of the tumour in treated mice compared to controls is represented graphically on the y-axis against time (x-axis).
# H460 primary tumor = experiment: H460 human non-small cell lung carcinoma xenograft, antitumor activity on the primary tumor; type: in vivo, athymic Swiss nude mice; details: H460 s.c., p.o. for 8 weeks, topotecan 1 mg/kg, compound of example 2 30 mg/kg
# Experimental: Female athymic Swiss nude mice (8-10 weeks old) (Charles River, Calco, Italy) were used for the experiments, as described above.
# H460 cells were injected i.p. into nude mice, adapted to grow as ascitis and maintained in vivo by i.p. passages (5×10^6 cells/mouse in 0.5 ml PBS) (Pratesi G., Br. J. Cancer 63, 71-74, 1991). Briefly, cells were collected from the donor mice about 7 days after inoculum. After washing, cell number and viability were determined by trypan blue exclusion. Such procedure allowed to obtain a single cell suspension easily available for s.c or i.v. injection.
# (§11) The effects of the compounds of the invention and/or topotecan on the growth of primary tumors and spontaneous lung metastasis were tested in mice inoculated s.c. in the right flank with H460 ascitic tumor cells (2×10^6/mouse). Each control or drug-treated group included 9-11 mice. The s.c. tumor growth was followed by biweekly measurements of tumor diameters with a Vernier caliper. Drug treatment was delivered orally, for 8 weeks, from day 1. Topotecan was delivered at the dose of 1 mg/kg and compounds of the invention were delivered at the dose of 30 mg/kg; in the combination group the compounds of the invention were delivered almost 1 hour after topotecan treatment. Control mice were solvent-treated orally in parallel with drug treatments.
# (§12) Drug efficacy was assessed as mean percentage tumor weight inhibition in drug-treated versus control mice expressed as tumor weight inhibition % (TWI %)=100−(mean tumor weight treated/mean tumor weight control×100), evaluated during and after drug treatment. Drug tolerability was assessed in tumor-bearing mice as either lethal toxicity, i.e., any death in treated mice occurring before any control death, or percentage body weight loss (BWL %)=100−(body weight on day x/body weight on day 1×100), where x represents a day after or during the treatment period.
# [12] = system: H460 spontaneous lung metastasis; experiment: H460 xenograft, spontaneous lung metastasis (antimetastatic activity); type: in vivo, athymic Swiss nude mice; details: topotecan 1 mg/kg, compound of example 2 30 mg/kg p.o.
# Experimental: At day 63, tumor-bearing mice were sacrificed by cervical dislocation and their lungs were removed and weighed. Lung lobes were spliced between two glass slides and the metastatic nodules were macroscopically counted against a bright light (Corti C, J. Cancer Res. Clin. Oncol. 122, 154-60, 1996). […] Reading of metastasis was performed by two independent observers, unaware of the experimental group, with an interobserver reproducibility >95%. The metastatic nature of these areas was confirmed by histological analysis of digital images obtained by Image Analysis System software (Delta System, Rome, Italy).
# [13] = Drug tolerability in H460 tumor-bearing mice (lethal toxicity); details: topotecan 1 mg/kg, compound of example 2 30 mg/kg p.o., 8 weeks
# Experimental: as §11, §12
# [14] = Homo sapiens, HT-29, 72 h, read-out: Antiproliferative activity (IC50 ± S.D., μM) HT-29/Mit
# [15] = Homo sapiens, HepG2, read-out: Antiproliferative activity (IC50 ± S.D., μM) HepG2
# [16] = read-out: Antiproliferative activity (IC50 ± S.D., μM) HepG2
# Sequence of Vacuolar ATPase (bafilomycin sensitive ATPase activity) (P38606 whole entry): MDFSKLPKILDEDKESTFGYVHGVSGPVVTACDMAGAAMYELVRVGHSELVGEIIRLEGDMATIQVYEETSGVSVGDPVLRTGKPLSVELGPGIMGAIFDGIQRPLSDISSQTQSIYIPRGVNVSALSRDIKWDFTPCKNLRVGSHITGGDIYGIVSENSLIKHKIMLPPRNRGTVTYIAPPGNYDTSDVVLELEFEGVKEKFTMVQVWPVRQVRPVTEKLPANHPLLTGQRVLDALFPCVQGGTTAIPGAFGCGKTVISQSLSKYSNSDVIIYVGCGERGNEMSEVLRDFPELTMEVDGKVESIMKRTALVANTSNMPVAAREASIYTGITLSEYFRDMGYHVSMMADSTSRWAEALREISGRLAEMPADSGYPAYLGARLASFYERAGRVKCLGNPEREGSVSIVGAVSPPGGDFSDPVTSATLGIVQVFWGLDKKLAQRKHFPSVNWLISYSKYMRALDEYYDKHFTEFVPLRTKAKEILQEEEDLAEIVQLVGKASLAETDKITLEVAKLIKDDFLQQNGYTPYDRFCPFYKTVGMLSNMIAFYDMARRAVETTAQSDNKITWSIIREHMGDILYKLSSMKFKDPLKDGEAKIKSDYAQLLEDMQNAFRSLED
# Sequence of Vacuolar ATPase (bafilomycin sensitive ATPase activity) (Q13488 whole entry): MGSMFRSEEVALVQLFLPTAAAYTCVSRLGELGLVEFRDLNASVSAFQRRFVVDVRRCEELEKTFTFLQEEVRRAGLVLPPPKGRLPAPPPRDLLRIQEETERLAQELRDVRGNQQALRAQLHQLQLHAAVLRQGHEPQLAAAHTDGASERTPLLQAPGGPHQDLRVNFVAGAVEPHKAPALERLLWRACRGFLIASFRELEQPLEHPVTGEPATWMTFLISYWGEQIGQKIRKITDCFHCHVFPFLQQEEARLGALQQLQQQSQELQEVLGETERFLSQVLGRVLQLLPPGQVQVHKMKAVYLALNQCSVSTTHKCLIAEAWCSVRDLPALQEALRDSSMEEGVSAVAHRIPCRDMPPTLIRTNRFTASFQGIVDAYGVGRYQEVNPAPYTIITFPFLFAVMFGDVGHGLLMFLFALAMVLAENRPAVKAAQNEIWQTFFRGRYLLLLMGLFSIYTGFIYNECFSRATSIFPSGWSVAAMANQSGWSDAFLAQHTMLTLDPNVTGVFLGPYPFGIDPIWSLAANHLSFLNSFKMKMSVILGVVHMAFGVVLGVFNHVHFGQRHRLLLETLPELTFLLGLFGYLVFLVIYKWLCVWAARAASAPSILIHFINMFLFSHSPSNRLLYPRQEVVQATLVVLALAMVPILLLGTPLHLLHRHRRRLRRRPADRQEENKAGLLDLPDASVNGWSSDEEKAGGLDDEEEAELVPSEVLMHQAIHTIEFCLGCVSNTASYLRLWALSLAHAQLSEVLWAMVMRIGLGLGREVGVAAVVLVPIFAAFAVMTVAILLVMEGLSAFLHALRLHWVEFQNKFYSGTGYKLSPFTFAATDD
# Sequence of Vacuolar ATPase (bafilomycin sensitive ATPase activity) (P27449 whole entry): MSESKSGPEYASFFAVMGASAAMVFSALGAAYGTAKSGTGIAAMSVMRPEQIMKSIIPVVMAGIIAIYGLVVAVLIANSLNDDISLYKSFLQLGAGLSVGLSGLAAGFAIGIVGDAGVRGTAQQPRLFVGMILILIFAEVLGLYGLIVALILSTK
structure (smiles),measurement,setting,value
CO/C(=C\C=C\c1cc2cc(Cl)c(Cl)cc2[nH]1)C(=O)NC1CC(C)(C)N(C)C(C)(C)C1 [Example 1],IC50,"[1]; Homo sapiens, HT-29",3.3 ± 0.4 µM
same,IC50,[2]; [14],1 µM
same,IC50,[3]; [15],1.1 ± 0.1 µM
CCOc1cc(C(=O)NC2CCN(C)CC2)ccc1-c1cc2cc(Cl)c(Cl)cc2[nH]1 [Example 5],IC50,"[1]; Homo sapiens, HT-29",3.8 µM
same,IC50,[2]; [14],2.3 µM
CCOc1cc(C(=O)NC2CC(C)(C)NC(C)(C)C2)ccc1-c1nc2cc(Cl)c(Cl)cc2[nH]1 [Example 3],IC50,"[1]; Homo sapiens, HT-29",0.56 ± 0.26 µM
same,IC50,[2]; [14],0.27 µM
same,IC50,[3]; [15],0.71 ± 0.01 µM
CCOc1cc(C(=O)NC2CCNCC2)ccc1-c1cc2cc(Cl)c(Cl)cc2[nH]1 [Example 4],IC50,"[1]; Homo sapiens, HT-29",4.7 µM
same,IC50,[2]; [14],3.6 µM
"CO/C1=C\C(C)=C\[C@@H](C)[C@@H](O)[C@@H](C)C/C(C)=C/C=C/[C@H](OC)[C@@H]([C@@H](C)[C@@H](O)[C@H](C)[C@@]2(O)C[C@@H](O)[C@H](C)[C@@H](C(C)C)O2)OC1=O [Bafilomycin A1, reference compound]",IC50,[4],0.0001 µM
same,IC50,[1],0.003 ± 0.002 µM
same,IC50,"[2]; read-out: Antiproliferative activity (IC50 ± S.D., μM) HT-29/Mit, 72 h. treatment",0.005 µM
same,IC50,[3]; [16],< 0.006 µM
COc1cc(C(=O)N(C)C2CC(C)(C)NC(C)(C)C2)ccc1-c1cc2cc(Cl)c(Cl)cc2[nH]1 [Example 6],IC50,"[1]; Homo sapiens, HT-29",4.7 µM
same,IC50,[2]; [14],3.3 µM
same,IC50,[3]; [15],0.92 ± 0.01 µM
"N.N.[Cl][Pt][Cl] [Cisplatin, reference compound]",IC50,[1],6.8 µM
same,IC50,[5],0.7 µM
same,IC50,[6],0.8 µM
same,IC50,[7],5.4 µM
same,IC50,[3]; [16],> 25 µM
same,IC50,[8],7.3 ± 3.3 µM
same,IC50,[9],10.1 ± 3.5 µM
same,IC50,[10],8.1 ± 2.1 µM
"CC[C@@]1(O)C(=O)OCc2c1cc1n(c2=O)Cc2cc3c(CN(C)C)c(O)ccc3nc2-1 [Topotecan, reference compound]",IC50,"[1]; Homo sapiens, HT-29",0.07 ± 0.01 µM
same,IC50,"[2]; Homo sapiens, HT-29, 72 h, read-out: IC50 for topotecan alone (FIG. 1 co-treatment experiment)",> 20 µM
same,Inhibition of tumour growth,[11],30-40%
same,LCK (Log10 Cell Kill),H460 primary tumor,0.5
same,Max TWI (day 56) (Maximal Tumor weight inhibition achieved),H460 primary tumor,57* %
same,Max TWI (day 56) (Maximal Tumor weight inhibition achieved),H460 primary tumor; listed as topotecan,57%
same,Lung No. Metastasis (range),[12]; day 63,11 (4-23)
same,Lung Weight (mg) (mean ± S.D.),[12]; day 63,169 ± 16 mg
same,Lung No. Metastasis (range),"[12]; day 63, listed as topotecan",reduced
same,Lung metastasis Inhibition %,[12]; inhibition of number of metastasis vs controls,58%
same,Tox/Tot (any death in treated mice occurring before any control mice),[13],0/10
